For data set [1], the system named is B16F10 murine melanoma cells. Nature of the data set: Dual flank B16F10 model, injected and contralateral tumors. The data set is classed as in vivo, C57BL/6 mice. The source says: In addition, activation of the STING pathway induces the upregulation of immune pathway checkpoints, which subsequently reduce T-cell-mediated cell killing, and thus moderate the effects of STING pathway agonism as a therapeutic rationale (Cell Rep. 2015 May 19; 11(7):1018-30). To test both hypotheses, C57BL/6 mice were inoculated subcutaneously with 1×10^6 and 5×10^5 B16F10 murine melanoma cells into right and left flank of mice, respectively (n=5 mice per group). Seven, ten, and thirteen days post-inoculation, the tumor at right flank were injected intratumorally with exosomes, 20 μg of free 3-3 cAIMPdFSH, 0.1 μg of free 3-3 cAIMPdFSH, or 0.1 μg 3-3 cAIMPdFSH loaded in PTGFRN-overexpressing exosomes, with a control antibody (α-IgG; 10 mg/kg; BioLegend, Catalog #400559, Clone RTK3758) or an antagonistic antibody against PD-1 (a PD-1; 10 mg/kg; BioLegend, Catalog #114111, Clone RMPI-14). Antibodies were injected intraperitoneally. Tumor volumes were measured daily until day 21, and animals were sacrificed when tumor volume reached 2000 mm^3.

Data set [2] has as its system B16F10 tumor and stroma area. Nature of the data set: IFNβ in situ hybridization and CD8, F4/80 immunohistochemistry in B16F10 tumor sections. The data set is classed as in vivo, C57BL/6 mice. The note with it: 20 μg free. How it is done:
Four groups of C57BL/6 mice (5 mice per group) were inoculated subcutaneously with 1×10^6 B16F10 tumor cells. Eight days post-inoculation the mice were injected intratumorally with dose of exosomes, 20 μg of free 3-3 cAIMPdFSH, 0.1 μg of free 3-3 cAIMPdFSH, or 0.1 μg of 3-3 cAIMPdFSH loaded in PTGFN-overexpressing exosomes (EXOSTING™). Half of the mice were injected again intratumorally at day 11 after the inoculation. Four- or 24-hours post-injection of each injection, the tumors were collected, cytokine levels were measured by in situ hybridization, and CD8 or F4/80 positive cells were counted by immunohistochemistry. Tumor area and stroma area were identified histologically. IFNβ gene expression levels in the tumor (FIG. 77A) and stroma (FIG. 77B) area were increased in the 20 μg free STING agonist and 0.1 μg EXOSTING™ groups at 4h after single dose. […] F4/80 positive cells were decreased in 20 μg free STING agonist group, but cells were recovered in 0.1 μg EXOSTING™ group (FIG. 78B).

Data set [3] relates to A20 lymphoma cells. Nature of the data set: CIVO intratumoral microinjection, IFNβ mRNA by in situ hybridization. The data set is classed as in vivo, BALB/cAnNHsd mice. The conditions noted are these: high dose free (printed 2 g), four hours post-injection. How it is done: All experiments in mice were approved by IACUC Board of Presage Biosciences, Seattle, Wash. (Protocol number PR-001) and were performed at Presage in accordance with relevant guidelines and regulations. All relevant procedures were performed under anesthesia and all efforts were made to minimize pain and suffering. Female BALB/cAnNHsd mice (Envigo) with an average weight of 18 gm were used for experiments at 5-7 weeks of age. For generating A20 allografts, mice were inoculated with 1 million A20 cells in 100 μl inoculation volume.
CIVO intra-tumoral microinjections were performed as described in Klinghoffer et al. (2016) Science Translational Medicine. Briefly, mice (n=6 per time point, 4 and 24 hours) were enrolled in microinjection studies when implanted tumors reached the following approximate dimensions: 14 mm (length), 10 mm (width) and 7 mm (depth). […]
Images of every cell from each tissue section stained were captured by digital, automated, high-resolution whole-tissue scanning (3D Histech Panoramic 250 Flash). Tumor responses were quantified from image files from each tissue section using Presage's custom CIVO Analyzer image analysis platform. […] In order to mitigate the influence of pre-existing necrosis on biomarker measurements, injection sites that fall within largely acellular tumor regions are excluded prior to quantitative analysis. […]

For data set [4], the system named is peritoneal cells and splenocytes. The data set is described as follows: Immune cell activation (CD86) in peritoneum and spleen 24 hours after intraperitoneal dose. The class given is in vivo, C57BL/6 mice. The conditions noted are these: 20 μg single IP dose. On the procedure:
A second experiment similar to the previous study was carried out with single-dose IP administration, and extended to 24 hours. Peritoneal cells and splenocytes were isolated from treated mice, and cell activation was measured by detection of CD86.

The text below walks through data of patent US20210322327A1, “EXTRACELLULAR VESICLES COMPRISING STING-AGONIST” (Codiak BioSciences, Inc., priority 2018, published 2021).

On to `Nc1ncnc2c1ncn2[C@@H]1O[C@@H]2COP(=O)(S)O[C@H]3[C@@H](F)[C@H](n4cnc5c(=O)[nH]cnc54)O[C@@H]3COP(O)(=S)O[C@H]2[C@H]1F` (some centres unmarked) [3-3 cAIMPdFSH, 3′3′-cAIMPdFSH], for which, in data set [1] (0.1 μg free + IgG or Anti-PD1), the injected tumor growth entry is recorded as “moderately potentiated”. Moreover, the “contralateral (not injected) tumor” value in data set [1] (20 μg free) was “significant tumor reduction”. The “contralateral tumor reduction with anti-PD1” value in data set [1] (20 μg free + anti-PD-1 10 mg/kg IP) was “more strengthened with anti-PD1 combination”. Moreover, in data set [1] (20 μg free, regardless of anti-PD1), the injected tumor growth result was “Almost completely eliminated”. Further, in data set [2], the “CD8 positive T cells” value was “not increased” and the F4/80 positive cells result is on record as “decreased”. In data set [2] (4h after second doses), the “level of IFNβ in tumor and stroma area” value is listed as “significantly decreased”. In data set [2] (4h after single dose), the “IFNβ gene expression in tumor and stroma area” value is “increased”.

Turning to `Nc1ncnc2c1ncn2[C@@H]1O[C@@H]2COP(O)(=S)O[C@@H]3C(O)[C@@H](COP(O)(=S)O[C@H]2[C@H]1O)O[C@H]3n1cnc2c(N)ncnc21` (some centres unmarked) [ML RR-S2 CDA], in data set [3], the “IFNβ mRNA levels” value was “comparable between the high dose STING agonist and the PTGFRN O/E EXOSTING™ groups”. For the same molecule, in data set [4], the “peritoneal cell activation (CD86)” value was “activation of peritoneal B cells, macrophages, monocytes and conventional dendritic cells (cDCs)”; the “spleen immune cell activation (CD86)” value was “moderate levels of immune cell activation”.
